Data from paper PMC9719539, “Single-molecule characterization of subtype-specific β1 integrin mechanics” (Nature Communications, 2022).

How the values were obtained:
integrin αVβ5 = biological target: T1, integrin αVβ5 (Homo sapiens, UniProt P06756+P18084); assay: Competition with cRGDfK-TF5WS binding to αVβ5 on K562 transfectants
T1 construct: expressed in transfected cells
Source text: (§1) Source data are provided as a Source Data file. […]
(§2) Source data are provided as a Source Data file.
(§3) (1 picture or pasted object on this page, not shown here)

integrin αVβ3 = biological target: T2, integrin αVβ3 (Homo sapiens, UniProt P05106+P06756); assay: Competition with cRGDfK-TF5WS binding to αVβ3 on K562 transfectants
T2 construct: expressed in transfected cells
Source text: as §1, §2, §3

BJ-5ta cells [1] = assay: Cytoskeletal inhibitor effects on TGT rupture and spreading; format: cell-based, human; settings: for TGT rupture with inhibitor (in words), all substrates / cell spreading with inhibitor (in words): 1 h; for TGT rupture with inhibitor (in words), all substrates: inhibitors 5 min preincubation; for cell spreading with inhibitor (in words): RGD- and LDVP-TGT
Source text: (21 pictures or pasted objects on this page, not shown here)

[2] = tested on: extended-open β1 integrin on BJ-5ta cells; assay: β1 integrin activation: number and density of bound AF647-12G10 Fab on biotin-PEG-cholesterol immobilized cells; format: cell-based, human
BJ-5ta cells [3] = assay: Actin retrograde flow rate (kymographs, SiR-actin); format: cell-based, human; settings: 64, 71 loci from 15, 13 cells
Experimental: BJ-5ta cells were seeded on RGD-54pN or LDVP-54pN surfaces for 40 min and 20 nM SiR-actin and 10 µM verapamil (Cytoskeleton, CY-SC001) were added 20 min before imaging. Time-lapse TIRF imaging (640 nm) was done with 2–5 s interval for more than 60 frames. Kymographs were generated with ImageJ and the linear fit analysis was done with MATLAB scripts.

BJ-5ta cells [4] = assay: Percentage of spread cells / cell spreading on TGT surfaces; format: cell-based, human; settings: for tension threshold for cell spreading: 1 h, nominal Ttol
Experimental: Glass coverslips were densely PEGylated to minimize non-specific interactions such as the binding of cell-secreted extracellular matrix proteins. Coverslips cleaned by piranha etching solution (a 3:1 mixture of sulfuric acid and hydrogen peroxide) were incubated in silanization solution (UCT, 1760-24-3; 2% aminosilane and 5% acetic acid in methanol) for 30 min and reacted with a mixture of Polyethylene glycol (PEG) with and without biotin (1:19, 150 mg/ml; Laysan Bio, Biotin-PEG-SVA-5000 and MPEG-SVA-5000) for 4 h. Surfaces were washed thoroughly and dried using nitrogen gas after each step. A 3D-printed dish (PLA) or a silicon gasket (Grace Bio Labs, 103280) was attached to the coverslip to form a dish. Neutravidin (Thermo Fisher scientific, 31000; 0.4 mg/ml) was added to the dish for 10 min and washed out thoroughly. The dish was emptied and a droplet (3 µL) of TGT solution (100 nM unless specified otherwise) was placed on the coverslip for 10 min in a humid condition to locally immobilize TGT. For the lateral drift correction for time-resolved TGT rupture analysis, biotin-coated gold nanoparticles (Luna Nanotech, GNP-BIOT-100-2-04; 100 nm) were sparsely immobilized as fiducial markers. For protein ligand coating, protein (50 ug/ml in PBS) was incubated in glass bottomed imaging dishes for 1 h at RT without additional passivation.
The cells were gently harvested by washing in PBS for 1 min, incubating with 0.05% trypsin for 3 min, and then neutralizing with cell culture medium (FBS 10%). The cells were spun down and resuspended with Leibovitz’s L-15 Medium (Gibco, 21083027) supplemented with 2 g/L glucose, then seeded on the TGT surface at an approximate density of 30 cells/mm^2. For integrin inhibition experiments, cells were incubated with Fab for 5 min before seeding. For cell immobilization experiments, cells were incubated with 1 nM Cholesterol-PEG-Biotin (Nanosoft Polymers, 3084-2000) for 5 min, followed by washes by centrifugation to remove biotin in solution before seeding. The imaging area was humidified and the temperature was maintained at 37 °C. A Nikon Eclipse Ti microscope equipped with Xenon arc lamp, Nikon perfect focus system, custom total internal reflection fluorescence microscopy (TIRFM) module, and custom reflection interference contrast microscopy (RICM) module was driven by Elements software. Dark regions in RICM show where cells have closely adhered to the surface (≪300 nm gap). Nikon 10X objective (CFI60 Plan Fluor) and 60X objective (CFI60 Apochromat TIRF) with DIC filter sets were used. […] Images were recorded using an electron-multiplying charge-coupled device (EMCCD; Andor iXon 888).
Single-cell data were obtained from multiple independent sample preparations for each condition as specified. Percentage of spread cells was obtained from three independent experiments. Statistical analyses were performed using MATLAB software. Two-sided (two sample) t-test was used for two group comparisons. Each group was compared with the control group unless specified otherwise. Representative micrographs are selected from at least two independent experiments.

BJ-5ta cells [5] = assay: BJ-5ta spreading on ACRGD-TGT with or without integrin blocking Fabs (area, aspect ratio); format: cell-based, human
Experimental: Fig. 9 Integrin α5β1 mediated cell spreading. a Affinity of ACRGD for integrins on intact cells. Titration curves are shown in Supplementary Fig. 13. b–d Behavior of BJ-5ta on ACRGD-54pN (BHQ2-Cy3) surfaces after 1 h in presence of integrin blocking Fabs described in Fig. 6 legend. b Close-contact enclosed area from RICM images (n = 43, 38, 47, 96, 50 cells). c Aspect ratio of contact area (n = 56, 49, 38 cells, >500 μm^2). d Ruptured TGT counts (n = 44, 40, 48, 96 cells). e–g Cell spreading on ACRGD-TGT of different Ttol in presence of integrin blocking Fabs. e Representative images of cells with RICM (top row) and same cells with DIC or Cy3 fluorescence to show TGT rupture (bottom row). Dim RICM rings (~20 μm diameter) with 12, 23 and 33 pN TGT are the shadows of the spherical cell body, not the close contacts. […]
The cells were gently harvested by washing in PBS for 1 min, incubating with 0.05% trypsin for 3 min, and then neutralizing with cell culture medium (FBS 10%). […] A Nikon Eclipse Ti microscope equipped with Xenon arc lamp, Nikon perfect focus system, custom total internal reflection fluorescence microscopy (TIRFM) module, and custom reflection interference contrast microscopy (RICM) module was driven by Elements software. […] Images were recorded using an electron-multiplying charge-coupled device (EMCCD; Andor iXon 888).

## C[C@H](N)C(=O)N[C@H]1CSSC[C@@H](C(=O)NCC(=O)O)NC(=O)[C@H](Cc2c[nH]c3ccccc23)NC(=O)CNC(=O)[C@H](CC(=O)O)NC(=O)CNC(=O)[C@H](CCCNC(=N)N)NC1=O
Integrin αVβ5; EC50 αVβ5, L15 + 1 mM Mn2+, competition with 25 nM cRGDfK-TF5WS
  EC50: 102 ± 7 nM
Integrin αVβ5; EC50 αVβ5, L15, no Mn2+, competition with 50 nM cRGDfK-TF5WS
  EC50: 367 ± 29 nM
Integrin αVβ5; Kd αVβ5, L15 + 1 mM Mn2+, 1% BSA, competition with 25 nM cRGDfK-TF5WS
  Kd: 50 ± 4 nM
Integrin αVβ3
  IC50: 765 ± 84 nM
Integrin αVβ3; Kd αVβ3, L15 + 1 mM Mn2+, 1% BSA, competition with 25 nM cRGDfK-TF5WS
  Kd: 170 ± 20 nM
Integrin αVβ3; Kd αVβ3, L15, 1% BSA, no Mn2+, competition with cRGDfK-TF5WS (25 nM for Fabs, 50 nM for ACRGDGWCG), Kd = EC50/(1+CL/Kd,L)
  Kd: 530 ± 60 nM

## Cc1[nH]c2ccccc2c1CCNC(=O)c1ccccc1F [CK666]
BJ-5ta cells [1]
  TGT rupture with inhibitor (in words), all substrates: no significant effect

## C=C1[C@@H](C)[C@H]2[C@H](Cc3ccccc3)NC(=O)[C@]23[C@H](OC(C)=O)/C=C/[C@@](C)(O)C(=O)[C@@H](C)C/C=C/[C@H]3[C@@H]1O [Cytochalasin D]
BJ-5ta cells [1]
  TGT rupture with inhibitor (in words), all substrates: eliminated TGT rupture on all substrates
  cell spreading with inhibitor (in words): inhibited cell spreading

## O=S(=O)(c1cccc2c(I)cccc12)N1CCCNCC1 [ML-7]
BJ-5ta cells [1]; RGD-54pN
  rupture of RGD-54pN with inhibitor (in words): significantly suppressed
BJ-5ta cells [1]
  cell spreading with inhibitor (in words): did not disrupt cell spreading

## O=C1NC(=S)N(c2cccc(Br)c2)C(=O)/C1=C/c1ccco1 [SMIFH2]
BJ-5ta cells [1]
  TGT rupture with inhibitor (in words), all substrates: greatly diminished TGT rupture
  cell spreading with inhibitor (in words): greatly decreased spreading

## C[C@@H](N)[C@H]1CC[C@H](C(=O)Nc2ccncc2)CC1 [Y-27632]
BJ-5ta cells [1]; RGD-54pN
  rupture of RGD-54pN with inhibitor (in words): significantly suppressed
BJ-5ta cells [1]
  cell spreading with inhibitor (in words): did not disrupt cell spreading

## Cc1ccc2c(c1)C(=O)[C@]1(O)CCN(c3ccc(N)cc3)C1=N2 [para-amino-blebbistatin]
BJ-5ta cells [1]; LDVP-12pN, 50 uM, listed as para-amino-Blebbistatin
  rupture of LDVP-12pN with inhibitor (in words): no role
BJ-5ta cells [1]; LDVP-33pN
  share of rupture requiring myosin II (para-amino-Blebbistatin): about one third
BJ-5ta cells [1]; LDVP-33pN, 50 uM
  rupture of LDVP-33pN with inhibitor (in words): significantly reduced rupture events
BJ-5ta cells [1]; RGD-54pN
  rupture of RGD-54pN with inhibitor (in words): significantly suppressed
  share of rupture requiring myosin II (para-amino-Blebbistatin): half
BJ-5ta cells [1]
  cell spreading with inhibitor (in words): did not disrupt cell spreading

## MUPA-LDVPAAK [LDVP-TGT, tension gauge tether conjugated with MUPA-LDVPAAK]
[2]
  force needed for activation of β1 integrin to high affinity state: less than 12 pN
[2]; versus control, 30 min
  12G10 Fab density / activated β1 density (in words): significantly above the control and similar at all Ttol
BJ-5ta cells [3]
  retrograde actin flow: 24.8 nm/s
BJ-5ta cells [4]
  tension threshold for cell spreading: < 12 pN
BJ-5ta cells [4]; 1 h after seeding
  cell spreading (in words): adhered and spread well

## cyclic-ACRGDGWCGK (disulfide) [ACRGD-TGT]
BJ-5ta cells [5]; ACRGD-54pN (BHQ2-Cy3), 1 h
  spreading on ACRGD-54pN with blocking Fabs (in words): spread efficiently and developed elongated, irregular shapes
BJ-5ta cells [5]; blocking Fabs to αVβ1, αVβ3 and αVβ5 present
  force level required for spreading through α5β1: > 33 pN

## cyclo [Arg-Gly-Asp-D-Phe-Lys(8-amino-3,6-dioxaoctanoic acid dimer)] (head to tail) [RGD-TGT]
BJ-5ta cells [3]
  retrograde actin flow: 10.1 nm/s
BJ-5ta cells [4]
  tension threshold for cell spreading: 33–43 pN

## proTGF-β1: physiologic macromolecular ligand with RGD motif
BJ-5ta cells [4]; 1 h after seeding
  cell morphology (in words): elongated with irregular lamellipodia
